Laboratory results published in US20250197424A1, “QUINOLINE COMPOUND AND USE THEREOF” (SHANGHAI PHARMACEUTICALS HOLDING CO., LTD., priority 2022, published 2025).
pIC50: −log10 of the molar value. Where a name gives a salt, the structure may show the parent alone. Read-outs that look alike come from different tables or passages of the source. Marks after values point to notes of the source that are not given here.

How the values were obtained:
GTP-KRAS-G12D:SOS1 = GTP-KRAS-G12D:SOS1 (Homo sapiens (Human), UniProt P01116, G12D); assay: GTP-KRAS-G12D:SOS1 binding inhibition
Protocol: (§1) The IC50 of the compounds was fitted using a nonlinear regression equation with GraphPad Prism 8. The results are presented in Table 2: • Negative control: DMSO • Positive control: 100 μM BI-2852
(§2) The following nonlinear fitting formula was used to obtain the IC50 (half-maximal inhibitory concentration) of the compounds:
(§3) [formula] • X: logarithm of the compound concentration • Y: 665/615 Ratio

[1] = In vivo bioavailability experiment in mice (pharmacokinetics); settings: ICR mice; for clearance / half-life / MRT / Vd / bioavailability: mouse, plasma; for MRT: read-out: Mean residence time; for Vd: read-out: Steady-state volume of distribution
Protocol: Experimental Animals: ICR mice, weighing 20 grams, provided by Sino-British SIPPR Lab Animal Ltd, Shanghai. The compound to be tested was accurately weighed and dissolved in DMSO to prepare a stock solution with a concentration of 15 mg/mL. The compound stock solution was accurately measured and diluted with 0.9% saline and Solutol in a ratio of 8.8:1 to a concentration of 0.3 mg/mL. The solution was clear and transparent, used for intravenous administration. Additionally, the compound was accurately weighed and mixed with 0.5% CMC-Na to a concentration of 0.5 mg/mL, used for oral gavage administration. Intravenous group: Three ICR mice, weighing 20 g+2 g, were intravenously administered the intravenous dosing solution. The dosing volume was 10 mL/kg, with a dose of 3 mg/kg. Blood samples (0.03 mL) were collected from the fundus vein of the mice at pre-dose and at 2, 15, 30, 60, 120, 240, 480, and 1440 minutes post-dose. Oral gavage group: Three ICR mice, weighing 20 g+2 g, were administered the oral gavage dosing solution. The dosing volume was 20 mL/kg, with doses of 10 mg/kg and 30 mg/kg. Blood samples (0.03 mL) were collected from the fundus vein of the mice at pre-dose and at 5, 15, 30, 60, 120, 240, 480, and 1440 minutes post-dose. The blood samples were centrifuged at 6800 g for 6 minutes at 2-8° C. The plasma was collected and stored in centrifuge tubes at -70° C. for later analysis. A 19 μL aliquot of blank mouse plasma was taken, and 1 μL of the standard curve working solution was added to prepare a series of concentration samples at 1, 0.5, 0.2, 0.1, 0.05, 0.01, 0.005, and 0.001 μg/mL. The mixture was vortexed and mixed well, and 400 μL of methanol containing an internal standard (Warfarin, 100 ng/mL) was added to precipitate the proteins. The mixture was vortexed and shaken for 1 minute, centrifuged at 18000 g for 7 minutes at 4° C., and the supernatant was transferred to a 96-well plate for injection. A 20 μL aliquot of the plasma sample was mixed with 400 μL of methanol containing an internal standard (Warfarin, 100 ng/mL) to precipitate the proteins. The mixture was vortexed for 10 minutes, centrifuged at 18000 g for 7 minutes at 4° C., and 400 μL of the supernatant was transferred to a 96-well plate for a 10 μL injection. Liquid chromatography system: Acquity UPLC system (including a binary solvent manager, sample manager, column heater, and degasser) from Waters Corporation, USA. MS/MS system: QTRAP® 6500+ triple quadrupole mass spectrometer equipped with an electrospray ionization (ESI) source from Sciex Corporation, USA. Analytical column: BEH C18 column, 1.7 μm, 50×2.1 mm I.D., from Waters Corporation, USA. Flow rate: 0.60 mL/min; injection volume: 10 μL; column temperature: 40° C. The gradient elution program used was as follows: The ion source was an electrospray ionization source (Turbo Ionspray, ESI); the ion spray voltage was […]; the temperature was 500° C.; the ion source gas 1 (N2) pressure was 50 psi; the ion source gas 2 (N2) pressure was 50 psi; the curtain gas (N2) pressure was 20 psi; the collision gas pressure (CAD) was Medium; detection was performed in positive ion mode; the scan type was multiple reaction monitoring (MRM).

GTP-KRAS-G12D:CRAF = GTP-KRAS-G12D:CRAF (Homo sapiens (Human), UniProt P01116, G12D); assay: GTP-KRAS-G12D:CRAF binding inhibition
Protocol: The IC50 of the compounds was fitted using a nonlinear regression equation with GraphPad Prism 8. The results are presented in Table 2: • Negative control: DMSO • Positive control: 100 μM BI-2852 The following nonlinear fitting formula was used to obtain the IC50 (half-maximal inhibitory concentration) of the compounds: [formula] • X: logarithm of the compound concentration • Y: 665/615 Ratio

GTP-KRAS-WT:SOS1 = GTP-KRAS-WT:SOS1 (Homo sapiens (Human), UniProt P01116); assay: KRAS_WT and SOS1 binding inhibition (KRAS-WT/SOS1 binding kit, 665/615 ratio); settings: GTP 10 μM
From the text: To detect the inhibitory capability of small molecule compounds on the binding activity between KRAS_WT and SOS1 using a drug screening system based on the binding of KRAS_WT and SOS1 interaction.
a) BI-2852 was used as a positive control, with its stock solution as the first dilution point, followed by a 3-fold dilution, making a total of 10+0 dilutions. Similarly, the first dilution point of the test compounds was also their respective stock solutions, followed by a 3-fold dilution, making a total of 11+0 dilutions. Using Echo, 0.2 μL of the gradient-diluted compound solutions were transferred into a 384-well plate, with each compound tested in duplicate. The final DMSO concentration was 1%. The plate was centrifuged at 1000 rpm for 1 minute. The final concentrations of the positive controls were 100, 33.33, 11.11, 3.70, 1.23, 0.412, 0.137, 0.046, 0.015, 0.005, and 0 μM. The final concentrations of the test compounds were […], 0.01, and 0 μM.
b) KRAS_WT from the kit was prepared with GTP at a final concentration of 10 μM in the dilution buffer, and 5 μL was transferred into the 384-well reaction plate. The plate was centrifuged at 1000 rpm for 1 minute.
c) Subsequently, 5 μL of the SOS1 mixture was transferred into the 384-well reaction plate. The plate was centrifuged at 1000 rpm for 1 minute and incubated at 25° C. for 15 minutes.
d) 10 μL of the detection mixture was transferred into the 384-well reaction plate. The plate was centrifuged at 1000 rpm for 1 minute and incubated overnight at 4° C.
e) The […] and emission wavelength at 615 nm were read using an Envision multimode plate reader. The 665/615 ratio signal intensity was used to characterize the enzyme activity.
as §1, §2, §3

[2] = intravenous injection, dose 3 (3 mg/kg in method)
[3] = oral, dose 30 (30 mg/kg in method)

Chain of GTP-KRAS-WT:SOS1 (P01116-2 other isoform, or with tags, fused parts or gaps): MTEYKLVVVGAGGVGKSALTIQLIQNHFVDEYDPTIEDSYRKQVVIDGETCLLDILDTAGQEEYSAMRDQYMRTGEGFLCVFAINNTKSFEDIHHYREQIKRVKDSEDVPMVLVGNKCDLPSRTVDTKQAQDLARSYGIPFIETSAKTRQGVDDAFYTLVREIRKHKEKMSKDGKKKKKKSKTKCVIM
Chain of GTP-KRAS-G12D:SOS1 (P01116-2 other isoform, or with tags, fused parts or gaps G12D): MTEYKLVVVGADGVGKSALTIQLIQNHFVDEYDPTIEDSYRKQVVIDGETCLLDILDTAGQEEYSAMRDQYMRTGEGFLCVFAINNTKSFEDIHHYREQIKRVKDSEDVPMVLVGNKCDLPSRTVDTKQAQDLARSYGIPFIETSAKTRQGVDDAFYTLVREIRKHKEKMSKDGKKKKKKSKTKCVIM
Chain of GTP-KRAS-G12D:CRAF (P01116-2 other isoform, or with tags, fused parts or gaps G12D): as above

In the case of `CCc1cccc2cc(O)cc(-c3c(F)c4c5c(nc(OC[C@@]67CCCN6C[C@H](F)C7)nc5c3F)N3CC5CCC(N5)C3CCO4)c12` (single isomer, unassigned) [13a′, 4-((2S or 2R,6aS,7S,10R)-1,3-Difluoro-14-(((2R,7aS)-2-fluorotetrahydro-1H-pyrrolizin-7a(5H)-yl)methoxy)-5,6,6a,7,8,9,10,11-octahydro-7,10-epiminoazepino[1′,2′: 5,6][1,5]oxazocino[4,3,2-de]quinazolin-2-yl)-5-ethylnaphthalen-2-ol], the pIC50 (GTP-KRAS-G12D:SOS1) was 7.55, the Area under curve [1, 2] was 2062.35 (h) * (ng/mL) and the Maximum plasma concentration [1, 2] was 3563.93 ng/mL. For the same compound, the Area under curve [1, 3] was 3091.66 (h) * (ng/mL), the Maximum plasma concentration [1, 3] was 781.43 ng/mL and the clearance [1, 2] was 6.5 mL/min/kg. For the same compound, the half-life [1, 2] was 15.9 h, the MRT [1, 2] was 4.73 h and the Vd [1, 2] was 5.33 L/kg. For the same compound, the bioavailability [1, 3] was 15%, the half-life [1, 3] was 4.68 h and the MRT [1, 3] was 4.53 h.
In the case of `Oc1cc(Cl)c2c(c1)C1(CC2)CCc2c(nc(OC[C@@]34CCCN3C[C@H](F)C4)nc2N2CC3CCC(C2)N3)C1` (single isomer, unassigned) [Compound 2a, (S or R)-4′-((1R,5S)-3,8-Diazabicyclo[3.2.1]octan-3-yl)-4-chloro-2′-((2R,7aS)-2-fluorotetrahydro-1H-pyrrolizin-7a(5H)-ylmethoxy)-2,3,5′,8′-tetrahydro-6′H-spiro[indene-1,7′-quinazolin]-6-ol dihydrochloride], the pIC50 (GTP-KRAS-G12D:SOS1) was 7.78, the pIC50 (GTP-KRAS-G12D:CRAF) was 7.49 and the pIC50 (GTP-KRAS-WT:SOS1) was 6.60.
Work on `Oc1cc(Cl)c2c(c1)C1(CC2)CCc2c(N3CC4CCC(C3)N4)nc(OC[C@@]34CCCN3C[C@H](F)C4)nc2C1(F)F` (single isomer, unassigned) [Compound 9a, (S or R)-4′-((1R,5S)-3,8-Diazabicyclo[3.2.1]octan-3-yl)-4-chloro-8′,8′-difluoro-2′-(((2R,7aS)-2-fluorotetrahydro-1H-pyrrolizin-7a(5H)-yl)methoxy)-2,3,5′,8′-tetrahydro-6′H-spiro[indene-1,7′-quinazolin]-6-ol dihydrochloride] yielded a pIC50 (GTP-KRAS-G12D:SOS1) of 7.82, a pIC50 (GTP-KRAS-G12D:CRAF) of 7.33 and a pIC50 (GTP-KRAS-WT:SOS1) of 6.25.
`CC1CC2(CCc3c(nc(OC[C@@]45CCCN4C[C@H](F)C5)nc3N3CC4CCC(C3)N4)C2)c2cc(O)cc(Cl)c21` (single isomer, unassigned) [Compound 7a, (1R or 1S)-4′-((1R,5S)-3,8-Diazabicyclo[3.2.1]octan-3-yl)-4-chloro-2′-(((2R,7aS)-2-fluorotetrahydro-1H-pyrrolizin-7a(5H)-yl)methoxy)-3-methyl-2,3,5′,8′-tetrahydro-6′H-spiro[indene-1,7′-quinazolin]-6-ol dihydrochloride] gave a pIC50 (GTP-KRAS-G12D:SOS1) of 7.67, a pIC50 (GTP-KRAS-G12D:CRAF) of 7.62 and a pIC50 (GTP-KRAS-WT:SOS1) of 6.61.
With `Oc1cc(Cl)c2c(c1)C1(CC2)CCc2c(nc(OC[C@@]34CCCN3C[C@H](F)C4)nc2N2CC3CCC(C2)N3)C1F` (single isomer, unassigned) [Compound 8d, (1R or 1S, 8'S or 8′R)-4′-((1R,5S)-3,8-diazabicyclo[3.2.1]octan-3-yl)-4-chloro-8′-fluoro-2′-(((2R,7aS)-2-fluorotetrahydro-1H-pyrrolizin-7a(5H)-yl)methoxy)-2,3,5′,8′-tetrahydro-6′H-spiro[indene-1,7′-quinazolin]-6-ol dihydrochloride] the pIC50 (GTP-KRAS-G12D:SOS1) was 6.94, the pIC50 (GTP-KRAS-G12D:CRAF) was 6.31 and the pIC50 (GTP-KRAS-WT:SOS1) was 5.32.
With `CCc1cccc2cc(O)cc(-c3c(F)c4c5c(nc(OC[C@]67C[C@@H](F)CN6C[C@@H](COC)C7)nc5c3F)N3CC5CCC(N5)C3CO4)c12` (single isomer, unassigned) [Compound 18b, 4-((2S or 2R,5aS,6S,9R)-1,3-difluoro-13-(((2R,6S,7aS)-2-fluoro-6-(methoxymethyl)tetrahydro-1H-pyrrolizin-7a(5H)-yl)methoxy)-5a,6,7,8,9,10-hexahydro-5H-6,9-epiminoazepino[2′,1′:3,4][1,4]oxazepino[5,6,7-de]quinazolin-2-yl)-5-ethylnaphthalen-2-ol dihydrochloride] the pIC50 (GTP-KRAS-G12D:SOS1) was 8.12, the Area under curve [1, 2] was 1944.73 (h) * (ng/mL) and the Maximum plasma concentration [1, 2] was 7632.72 ng/mL. The Area under curve [1, 3] was 1904.95 (h) * (ng/mL), the Maximum plasma concentration [1, 3] was 508.76 ng/mL and the clearance [1, 2] was 24.5 mL/min/kg. The half-life [1, 2] was 11.8 h, the MRT [1, 2] was 1.41 h and the Vd [1, 2] was 4.98 L/kg. The bioavailability [1, 3] was 9.8%, the half-life [1, 3] was 3.57 h and the MRT [1, 3] was 3.77 h.
In the case of `CCc1cccc2cc(O)cc(-c3c(F)c4c5c(nc(OC[C@]67C[C@@H](F)CN6C[C@@H](CN6C[C@@H](C)O[C@@H](C)C6)C7)nc5c3F)N3CC5CCC(N5)C3CO4)c12` (single isomer, unassigned) [Compound 25b, 4-((2S or 2R)-13-(((2R,6R,7aS)-2-(((2R,6S)-2,6-dimethylmorpholino)methyl)-6-fluorotetrahydro-1H-pyrrolizin-7a(5H)-yl)methoxy)-1,3-difluoro-5a,6,7,8,9,10-hexahydro-5H-6,9-epiminoazepino[2′,1′:3,4][1,4]oxazepino[5,6,7-de]quinazolin-2-yl)-5-ethylnaphthalen-2-ol trihydrochloride], the pIC50 (GTP-KRAS-G12D:SOS1) was 8.17, the Area under curve [1, 2] was 7940.26 (h) * (ng/mL) and the Maximum plasma concentration [1, 2] was 22039.3 ng/mL. The Area under curve [1, 3] was 2365.19 (h) * (ng/mL), the Maximum plasma concentration [1, 3] was 863.75 ng/mL and the clearance [1, 2] was 6.33 mL/min/kg. The half-life [1, 2] was 12.2 h, the MRT [1, 2] was 1.01 h and the Vd [1, 2] was 0.84 L/kg. For the same compound, the bioavailability [1, 3] was 2.98%, the half-life [1, 3] was 3.81 h and the MRT [1, 3] was 3.15 h.
